Experimental data taken from patent publication US20100130579A1, “CANCER THERAPY” (Georgetown University, priority 2006, published 2010).

Key:
[1] = tested on: RASSF1 gene; assay: Gene array (microarray) analysis of RASSF1 expression; assay type: cell-based, human; settings: PC3 cells, 2 μg/ml mahanine, 2 days, compared to vehicle-treated control
Experimental: FIGS. 1A-1D. Mahanine induces RASSF1A in prostate and other cancer cells. FIG. 1A: Microarray analyses of PC3 cells treated with ([…] (+) or vehicle (−) for 2 days, RNA was extracted and microarray analysis was performed. FIG. 1B: RT-PCR data showing the expression of RASSF1A and GAPDH in untreated normal prostate epithelial cells (PrEC) and human prostate cancer cells (PC3). FIG. 1C: PC3 (left panel) and LNCaP (right panel) cells were treated with 0, 1, 2 and 3 μg/ml mahanine for 3 days. RNA was extracted, and RT-PCR assays were performed to detect RASSF1A and GAPDH expression. Representative photograph from an experiment that was repeated thrice. Quantitative estimations of relative levels of RASSF1A mRNAs (lower panels) were determined by densitometric measurements of RT-PCR gels from three independent experiments after normalization with GAPDH. […]
(§1) Microarray analysis: Total RNA was isolated from […] cells treated with or without mahanine using TRIZOL reagent (Invitrogen Corp., Carlsbad, Calif.). […] RNA was evaluated by electrophoresis before continuing with probe synthesis and hybridization. […] Following repetitive washing in saline-sodium citrate/SDS, hybridized cDNA probes were detected by chemiluminescence. […] Bound biotinylated cDNA probe was detected with alkaline phosphatase-conjugated streptavidin and CDP-Star chemiluminescent substrate (SuperArray). […]

[2] = tested on: cyclin D1; assay: Gene array (microarray) analysis of cyclin D1 expression; assay type: cell-based, human; settings: PC3 cells, 2 μg/ml, 2 days
Experimental: FIGS. 2A-2D. Mahanine down-regulates cyclin D1 expression in prostate and other cancer cells. FIG. 2A: Microarray analyses showing PC3 cells treated with (2 μg/ml) mahanine (+) or vehicle (−) for 2 days and RNA was extracted and microarray analysis was performed. FIG. 2B and FIG. 2C: PC3 (left panel) and LNCaP (right panel) cells were treated with 0, 1, 2 and 3 μg/ml mahanine for 3 days. RNA was extracted, and RT-PCR assays were performed to detect cyclin D1 and GAPDH mRNAs. Representative photograph from an experiment that was repeated thrice. Quantitative estimations of relative levels of cyclin D1 mRNAs (lower panel) were determined by densitometric measurements of RT-PCR gels from three independent experiments after normalization with GAPDH. […]
as §1

[3] = tested on: cyclin A1; assay: RT-PCR of cyclin A1 mRNA in prostate cancer cells; assay type: cell-based, human; settings: PC3 or LNCaP cells, mahanine treatment
[4] = tested on: cyclin D1 protein; assay: Western blot of cyclin D1 protein levels; assay type: cell-based, human; settings: 3 days
Experimental: FIGS. 3A-3C. Mahanine down-regulates cyclin D1 protein in prostate cancer cells. FIG. 3A and FIG. 3B: Western blots showing cyclin D1 protein levels in PC3 (A) and LNCaP (B) cells treated with 0, 1, 2 and 3 μg/ml mahanine for 3 days. Protein lysates (50 μg) from PC3 and LNCaP cells were resolved on 12% SDS-PAGE, and immunoblots were probed with antibodies to cyclin D1. All immunoblots were re-probed with β-actin antibodies to ensure equal loading. Representative photographs from an experiment that was repeated thrice. Quantitative analyses of relative levels of cyclin D1 proteins are shown on the right panels. […] FIG. 3C: PC3 cells were plated on chamber slides and treated with or without 2 μg/ml mahanine for 2 days. Cells were then fixed in methanol, incubated with cyclin D1 antibody overnight, Alexi Fluor-conjugated secondary antibodies for 1 hour and counter stained with propidium iodide (PI). Slides were then mounted and examined using a fluorescence microscope. Photographs were taken at the same magnification (×20) and then transported to Photoshop. Representative photographs from an experiment that was repeated twice.
Western blots analysis: Protein lysates were prepared from PC3 and LNCaP cells that were treated with or without mahanine. […] Band intensities were quantified by utilizing ImageJ software (NIH, Bethesda, Md.).

[5] = tested on: Akt; settings: prostate cancer cells; cited from earlier work

CC(C)=CCC[C@@]1(C)C=Cc2c(c(C)cc3c2[nH]c2cc(O)ccc23)O1 [mahanine]
RASSF1 gene expression (gene array) [1]: dramatically induced | cyclin D1 expression (gene array) [2]: down-regulated the expression of cyclin D1 | cyclin A1 expression (RT-PCR) [3]: did not alter the expression | cyclin D1 protein levels decreased to ([4]; PC3 cells, 1 μg/ml, p<0.01): about 40% | cyclin D1 protein (Western blot) ([4]; PC3 cells, 1, 2 and 3 μg/ml): dose-dependent decrease | Akt activation state [5]: deactivated Akt
